Assay results reported in BindingDB's records for doi:10.1021/acschembio.7b00489 (Michigan State University, 2017).
pEC50, pKi: −log10 of the molar value. “And” between values parts separate entries of the source, which are not always exact repeats. Identical values can stand only once. Counter-ions that a name gives are not always drawn.

Tests used:
[1] = target: Proteasome subunit alpha type-6 (Homo sapiens, UniProt P60900); assay: Proteasome Activity Assay; details: pH 7.5; 37 °C
Experimental: Activity assays were carried out in a 200 uL reaction volume. Different concentrations of test compounds were added to a black flat/clear bottom 96-well plate containing 1 nM of either human constitutive 20S proteasome or 26S proteasome, in 50 mM Tris-HCl at pH 7.5 and allowed to sit for 10 min at RT. Fluorogenic substrates were then added and the enzymatic activity measured at 37 °C on a SpectraMax M5e spectrometer by measuring the change in fluorescence unit per minute for 1 h at 380−460 nm. The fluorescence units for the vehicle control were set at a 100%, and the ratio of drug-treated sample set to that of vehicle control was used to calculate the fold change in enzymatic activity.

[2] = target: Dopamine D2 receptor (Homo sapiens); assay: Human embryonic kidney (HEK-293) cells were plated in 100 mm plates and transfected with pcDNA3.1-D2R using Lipofectamine 2000 (Invitrogen; Waltham, MA) according to the manufacturer's instructions. Radioligand binding assays were performed 24 h after transfection essentially as described.

Proteasome subunit alpha type-6, sequence (P60900 whole entry): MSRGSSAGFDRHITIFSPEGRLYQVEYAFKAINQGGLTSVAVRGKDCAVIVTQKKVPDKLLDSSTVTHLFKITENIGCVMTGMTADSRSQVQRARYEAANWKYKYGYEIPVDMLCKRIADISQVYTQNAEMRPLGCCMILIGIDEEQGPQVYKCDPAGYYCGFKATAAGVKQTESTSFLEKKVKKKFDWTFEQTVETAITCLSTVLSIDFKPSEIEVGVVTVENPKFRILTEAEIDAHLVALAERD

| pEC50 [1] | pKi [2] | SMILES |
| --- | --- | --- |
| 4.92 |  | CSc1ccc2c(c1)N(CC[C@@H]1CCCCN1C)c1ccccc1S2 [10-[2-(1-Methyl-piperidin-2-yl)-ethyl]-2-methylsulfanyl-10H-phenothiazine (thioridazine)] |
| 4.91 |  | CN(C)CCCN1c2ccccc2CCc2ccc(Cl)cc21 [CLOMIPRAMINE HYDROCHLORIDE] |
| < 4.60 | < 3.60 | CC(C)CCCN1c2ccccc2Sc2ccc(Cl)cc21 [CPZ analog, 1] |
| 5.20 | < 3.60 | O=S(=O)(O)CCCCN1c2ccccc2Sc2ccc(Cl)cc21 [CPZ analog, 2] |
| < 4.60 |  | O=S(=O)(O)CCCN1c2ccccc2Sc2ccc(Cl)cc21 [CPZ analog, 3] |
| < 4.60 |  | O=S(=O)(O)CCCCCN1c2ccccc2Sc2ccc(Cl)cc21 [CPZ analog, 4] |
| 5.05 | < 5.53 | Clc1ccc2c(c1)N(CCCCN1CCOCC1)c1ccccc1S2 [CPZ analog, 5] |
| < 4.60 | < 3.60 | O=C(O)C#CCN1c2ccccc2Sc2ccc(Cl)cc21 [CPZ analog, 6] |
| 5.19 | < 3.60 | O=C(O)c1ccc(CN2c3ccccc3Sc3ccc(Cl)cc32)cc1 [CPZ analog, 7] |
| 4.81 | < 3.60 | COC(=O)c1ccc(CN2c3ccccc3Sc3ccc(Cl)cc32)cc1 [CPZ analog, 8] |
| 4.92 |  | CN1CCCC(CC2c3ccccc3Sc3ccccc32)C1 (centres undefined) [METHIXENE] |
| 5.11 |  | CN(C)CCCN1c2ccccc2Sc2ccc(C(F)(F)F)cc21 [TRIFLUPROMAZINE] |
| 4.83 and 5.00 |  | CN(C)CCCN1c2ccccc2Sc2ccc(Cl)cc21 [[3-(2-Chloro-phenothiazin-10-yl)-propyl]-dimethyl-amine(Chlorpromazine)] |
